Results published in patent publication US10253002B2, “Compounds and methods of treating infections” (Neoculi Pty Ltd., priority 2013, dated 2019).
Where “and” joins values, the source holds several entries; their conditions need not be identical. Equal entries are not always repeated. Where two headings read alike, the source gives them in different places.

Experiments:
Escherichia coli = experiment: Broth microdilution MIC, Example 7 (NCL812 and analogues); assay type: cell-based; settings: 24 hours; for MIC (μg/ml) at 24 hours, E. coli: 1st and 2nd replicate rows
VRE = experiment: as above; assay type: cell-based, Enterococcus spp.; settings: for MIC: Enterococcus, VRE, 24 h, duplicate lines per compound; for MIC / MIC (μg/ml) at 24 hours, VRE 1 / MIC (μg/ml) at 24 hours, VRE 2: 24 hours; for activity against VRE among analogues: MIC testing, two VRE strains; for MIC (μg/ml) at 24 hours, VRE 1: isolate VRE 1; for MIC (μg/ml) at 24 hours, VRE 1 / MIC (μg/ml) at 24 hours, VRE 2: 1st and 2nd replicate rows; for MIC (μg/ml) at 24 hours, VRE 2: isolate VRE 2
Summary of the method: (§1)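 CLSI broth microdilution against two MRSA and two VRE strains, tested in duplicate with a third run if results differed by more than one two-fold dilution.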

[1] = system: Gram-negative bacteria (E. coli and Pseudomonas aeruginosa); experiment: Testing of NCL812 analogues, Gram-negative antibacterial activity; assay type: cell-based; settings: MIC testing
Protocol: Minimum inhibitory concentrations (μg/ml) were determined using the broth microdilution method recommended by the Clinical and Laboratory Standards Institute (CLSI). MIC breakpoints were determined by visual assessment and then confirmed using an ELISA plate reader, measuring absorbance levels at 600 nm. Bacterial growth (turbidity) in the wells with antimicrobial was compared with the amount of growth (turbidity) in the growth-control well (containing no antimicrobial). All isolates were tested in duplicate, if there was a difference of greater than one two-fold dilution in the results, the test was repeated a third time. The purity of the isolates was closely monitored during testing by subculturing the prepared bacterial inoculum onto SBA (sheep blood agar). The MICs of the control strains for the antimicrobial ampicillin were determined for each testing run as an internal quality control. The MIC50, […] and MIC range (minimum and maximum) were calculated for each of the bacterial groups.
MICs were determined against two MRSA strains, two VRE strains and one strain each of E. coli and Pseudomonas aeruginosa.

MRSA = experiment: Broth microdilution MIC, Example 7 (NCL812 and analogues); assay type: cell-based, Staphylococcus aureus; settings: for activity against MRSA among analogues: MIC testing, two MRSA strains; for MIC: Staphylococcus aureus, MRSA, 24 h, duplicate lines per compound; for MIC / MIC (μg/ml) at 24 hours, MRSA 1 / MIC (μg/ml) at 24 hours, MRSA 2: 24 hours; for MIC (μg/ml) at 24 hours, MRSA 1: isolate MRSA 1; for MIC (μg/ml) at 24 hours, MRSA 1 / MIC (μg/ml) at 24 hours, MRSA 2: 1st and 2nd replicate rows; for MIC (μg/ml) at 24 hours, MRSA 2: isolate MRSA 2
Summary of the method: as §1

Pseudomonas aeruginosa = experiment: as above; assay type: cell-based; settings: 24 hours
[2] = system: Staphylococcus aureus T3-129 / Staphylococcus spp. MK1; experiment: Synergy studies, checkerboard method (FIC index); assay type: cell-based; settings: Staphylococcus spp. Strain MK1
[3] = system: DNA synthesis in S. aureus ATCC 29213; experiment: Macromolecular synthesis assay: DNA synthesis ([3H] thymidine); assay type: cell-based, Staphylococcus aureus; settings: control; 8 fold the MIC (0.5 μg/mL)
Protocol: Cells were grown at 35° C. overnight on Trypticase Soy agar. A colony from the plate was used to inoculate 10 ml of Mueller Hinton broth II (MHBII), and the culture was grown to early exponential growth phase (OD600==0.2 to 0.3) while incubating in a shaker at 35° C. and 200 rpm.
When cells reached early exponential phase, 100 μL of culture was added to triplicate wells containing various concentrations of test compound or control antibiotics (5 μL) at 20× the final concentration in 100% DMSO. A 5% DMSO treated culture served as the “no drug” control for all experiments. Cells were added in MHBII at 105% to account for the volume of drug added to each reaction or in M9 minimal medium for protein synthesis reactions. Following 15 min incubation at room temperature, either [^3H] thymidine (DNA synthesis), [^3H] uridine (RNA synthesis) or [^3H] leucine (protein synthesis) was added at 0.5-1.0 μCi per reaction, depending on the experiment. Reactions were allowed to proceed at room temperature for 15-30 min and then stopped by adding 12 μL of cold 5% trichloroacetic acid (TCA) or 5% TCA/2% casamino acids (protein synthesis only). Reactions were incubated on ice for 30 min and the TCA precipitated material was collected on a 25 mm GF/A filter. After washing three times with 5 ml of cold 5% TCA, the filters were rinsed two times with 5 mL 100% ethanol, allowed to dry, and then counted using a Beckman LS3801 liquid scintillation counter.

Structure (SMILES) | MIC (Escherichia coli; Escherichia coli, read-out: MIC (μg/ml) at 24 hours, E. coli, duplicate lines per compound) | MIC (VRE; read-out: MIC (μg/ml) at 24 hours, VRE 1, VRE 1) | MIC (VRE; read-out: MIC (μg/ml) at 24 hours, VRE 2, VRE 2) | MIC (MRSA; read-out: MIC (μg/ml) at 24 hours, MRSA 1, MRSA 1) | MIC (MRSA; read-out: MIC (μg/ml) at 24 hours, MRSA 2, MRSA 2) | MIC (μg/ml) at 24 hours, P. aeruginosa (Pseudomonas aeruginosa; P. aeruginosa, duplicate lines per compound, Hydrochloride) | MIC (Pseudomonas aeruginosa; Pseudomonas aeruginosa, 24 h, read-out: MIC (μg/ml) at 24 hours, P. aeruginosa, duplicate lines per compound) | MIC (μg/ml) at 24 hours, E. coli (Escherichia coli) | MIC (μg/ml) at 24 hours, VRE 1 (VRE) | MIC (μg/ml) at 24 hours, VRE 2 (VRE) | MIC (μg/ml) at 24 hours, MRSA 1 (MRSA) | MIC (μg/ml) at 24 hours, MRSA 2 (MRSA) | MIC (μg/ml) at 24 hours, P. aeruginosa (Pseudomonas aeruginosa; 1st and 2nd replicate rows) | Antibiotic MIC Alone ([2]; antibiotic alone) | activity against VRE among analogues (VRE) | level of Gram-negative antibacterial activity among analogues [1] | activity against MRSA among analogues (MRSA) | FICI ([2]; FIC index of antibiotic with NCL812) | Result (interaction with NCL812) ([2]; antibiotic with NCL812) | inhibition of DNA synthesis [3]
Cl.N=C(N)N/N=C/c1cccc(C(F)(F)F)c1 [NCL043] |  |  |  |  |  |  |  | 128 µg/mL | 128 µg/mL | 128 µg/mL and 64 µg/mL | 128 µg/mL | 128 µg/mL | 128 µg/mL |  | greatest activity | highest level of Gram-negative antibacterial activity | greatest activity |  |  | 
Cl.N=C(N)N/N=C/c1cccc(Cl)c1 [NCL052] |  |  |  |  |  |  |  | >128 µg/mL | 128 µg/mL | 128 µg/mL | 128 µg/mL | 128 µg/mL | 128 µg/mL |  | greatest activity | highest level of Gram-negative antibacterial activity | greatest activity |  |  | 
O=C(O)c1cn(C2CC2)c2cc(N3CCNCC3)c(F)cc2c1=O [Ciprofloxacin] |  |  |  |  |  |  |  |  |  |  |  |  |  | 0.125 µg/mL and 0.25 µg/mL |  |  |  | 0.75 and 0.525 and 0.625 and 0.562 | NE (No effect (NE) was defined as 0.5<FICI<4) | approximately 51%

Now from value to compound, other results behind:

MIC (Escherichia coli; Escherichia coli, read-out: MIC (μg/ml) at 24 hours, E. coli, duplicate lines per compound) | MIC (VRE; read-out: MIC (μg/ml) at 24 hours, VRE 1, VRE 1) | MIC (VRE; read-out: MIC (μg/ml) at 24 hours, VRE 2, VRE 2) | MIC (MRSA; read-out: MIC (μg/ml) at 24 hours, MRSA 1, MRSA 1) | MIC (MRSA; read-out: MIC (μg/ml) at 24 hours, MRSA 2, MRSA 2) | MIC (μg/ml) at 24 hours, P. aeruginosa (Pseudomonas aeruginosa; P. aeruginosa, duplicate lines per compound, Hydrochloride) | MIC (Pseudomonas aeruginosa; Pseudomonas aeruginosa, 24 h, read-out: MIC (μg/ml) at 24 hours, P. aeruginosa, duplicate lines per compound) | MIC (μg/ml) at 24 hours, E. coli (Escherichia coli) | MIC (μg/ml) at 24 hours, VRE 1 (VRE) | MIC (μg/ml) at 24 hours, VRE 2 (VRE) | MIC (μg/ml) at 24 hours, MRSA 1 (MRSA) | MIC (μg/ml) at 24 hours, MRSA 2 (MRSA) | MIC (μg/ml) at 24 hours, P. aeruginosa (Pseudomonas aeruginosa; 1st and 2nd replicate rows) | Antibiotic MIC Alone ([2]; antibiotic alone) | Structure (SMILES) | activity against VRE among analogues (VRE) | level of Gram-negative antibacterial activity among analogues [1] | activity against MRSA among analogues (MRSA) | FICI ([2]; FIC index of antibiotic with NCL812) | Result (interaction with NCL812) ([2]; antibiotic with NCL812) | inhibition of DNA synthesis [3]
> 128 µg/mL | 32 µg/mL | 32 µg/mL | 128 µg/mL | 32 µg/mL | >128 µg/mL | 128 µg/mL |  |  |  |  |  |  |  | Cl.N=C(N/N=C/c1cc(O)c(O)c(O)c1)N/N=C/c1cc(O)c(O)c(O)c1 [NCL097, 2,2′-bis[(3,4,5-trihydroxyphenyl)methylene]carbonimidic Dihydrazide Hydrochloride] | greatest activity | highest level of Gram-negative antibacterial activity | greatest activity |  |  | 
 |  |  |  |  |  |  | >128 µg/mL | >128 µg/mL | >128 µg/mL | >128 µg/mL | >128 µg/mL | 128 µg/mL |  | Cl.N=C(N)NN=Cc1ccc(F)cc1 [NCL053] |  | highest level of Gram-negative antibacterial activity |  |  |  | 
